Assay results: patent EP0974573A1, “PHENYLPROPENONE COMPOUNDS AND MEDICINES CONTAINING THE SAME” (Kabushiki Kaisha Yakult Honsha, priority 1997, dated 1998)

How the values were obtained:
[1] = tested on: rat-derived ACAT; test: Inhibitory effects on rat-derived ACAT (Test 1); type: biochemical; details: crude enzyme from microsome protein fractions of rat liver, (14C)-oleoyl-CoA substrate, 37°C
Method: To test effects on ACAT, a reaction was conducted in vitro to form (^14C)-cholesteryl oleate from endogeneous cholesterol in the presence of (^14C)-oleoyl-CoA as a substrate by using a crude enzyme prepared from microzome protein fractions of a rat liver.
The reaction mixture had the following composition: 20 µℓ of microsome protein (1.83 mg/mℓ), 20 µℓ of (^14C)-oleoyl-CoA (5 µCi/mℓ, BSA: 96 nmol/mℓ), 106 µℓ of 100 mM phosphate buffer (containing 5 mM of dithiothreitol, pH 7.4) and a sample dissolved in 4 µℓ of methanol or dimethyl sulfoxide; 150 µℓ in total.
The reaction was conducted at 37°C. After an elapse of a predetermined reaction time (18 minutes in general), a 2:1 mixture of chloroform and methanol (5.65 mℓ) was added to terminate the reaction. A 0.04 N aquous solution of hydrochloric acid (0.98 mℓ) and as a carrier, cholesteryl oleate were added, followed by extraction for 20 minutes on a shaking apparatus. The mixture was then allowed to stand overnight in a cold dark place. On the following day, the separated lower chloroform layer was extracted in its entirety and was dried under a nitrogen gas stream. The remaining upper layer was added with the lower layer (5.65 mℓ) of the Folch's partition solution, and was extracted again. After the mixture was allowed to stand overnight in a dark place, the lower layer was drawn in its entirety. This lower layer was combined with the lower chloroform layer fraction, which had already been dried to solid, and the mixture was then dried to solid.
The solid was then dissolved in chlorofrom (200 µℓ), and the solution was coated in its entirety on a G60 plate (aluminum sheet) for silica gel thin layer chromatography. After the solid was developedover 10 cm with a 10:190 mixture of diethyl ether and petroleum ether, autoradiography was conducted and the formation of (^14C)-colesteryl oleate was confirmed. This section was then cut off. The radioactivity of each sample was measured by subjecting it to liquid scintillation counting for 5 minutes in toluene or was measured for 30 minutes by a "Betascope" (manufactured by BETA-GEN INC. The results so obtained are shown in Table 1. Table 1

[2] = tested on: SD rats; test: Plasma cholesterol elevation inhibitory effects on rats loaded with high cholesterol diet, feed-mixed administration (Test 3); type: in vivo, rat; details: 0.005% of compound added to hyperlipemia inducing diet, ad libitum 3 days
Text: Using 5-week old male SD rats (120-150 g, 10 rats per group, individual feeding), plasma cholesterol elevation inhibitory effects of various compounds in the Examples on rats were studied. To a control group, a feed which had been prepared by adding 1.5% of cholesterol, 0.5% of cholic acid, 10% of coconut oil and 10% of sugar to "F-2 Diet" (product of FUNABASHI FARM CO., LTD.) was given ad libitum as a hyperlipemia inducing diet.
To each test-compound-administered group, on the other hand, a feed which had been prepared by adding 0.005% of the corresponding compound in the Examples to the hyperlipemia inducing diet of the above-described composition was given ad libitum. Further, a normal diet group to which a feed similar to the hyperlipemia inducing diet except for the exclusion of cholesterol was also tested similarly. As a testing method, after these feeds were given ad libitum for 3 days, bloods were drawn on the 4th day from the abdominal aortas of the individual rats under anesthesia with Nembutal. Subsequent to collection of plasma from each blood sample, the plasma cholesterol was quantitated by a "DETERMINER TC555 KIT" (product of Kyowa Medex Co., Ltd.) while the HDL cholesterol was quantitated by "DETERMINER HDL KIT" (product of Kyowa Medex Co., Ltd.). The liver cholesterol was measured by extracting it in accordance with the Folch's method and then measuring it with a "DETERMINER TC555 KIT". Statistical processing of the data so obtained was conducted by the Danett's test.

[3] = tested on: J774.1 strain, an established cell line of mouse macrophage; test: Inhibitory effects on the accumulation of cholesterol esters in macrophage (Test 2); type: cell-based; details: J774.1 mouse macrophage, 12 hours incubation with cholesterol liposomes
Method: Inhibitory effects on the accumulation of cholesterol esters in macrophage were tested using J774.1 strain, an established cell line of mouse macrophage.
Metabolism of LDL in endothelial cells or smooth muscle cells causes downregulation of the LDL receptor by excess free cholesterol in the cells, but in a macrophage, uptake of modified lDL takes place via a scavenger receptor. As no regulation is applied to this pathway, cholesterol esters progressively accumulate without any limitation.
It was therefore studied whether or not corydaline would inhibit intracellular accumulation of cholesterol esters by having liposomes, which were formed of […] cholesterol and phosphatidylcholine, uptaken in macrophage cells and then causing them to act on acyl-CoA:cholesterol acyltransferase which existed on rough-surfaced endoplasmic reticula.
The macrophage cells were incubated for 2 days under 5% CO2 on an RPMI 1640 medium (product of NISSUI PHARMACEUTICAL CO., LTD.) which had been added with 10% fetal bovine serum, penicilin (50 U/mℓ) and streptomycin (50 µg/mℓ). Trypsinization was then conducted, and cells attached to the bottom of each well were peeled off and formulated into a cell suspension. The cells were washed with a fresh supply of the above-described culture medium, and the cell solution was then seeded at 2 x 10^6 cells/mℓ on a 24-well multiple well plate ("25820-24", product of CORNING INC.). After incubation at 37°C under 5% CO2 for 37 hours, the culture medium was replaced with a fresh supply of the above-described culture medium and, after a 0.3 M glucose solution (40 µℓ) with cholesterol [80 µg; containing 0.4 µCi of (^3H)-cholesterol] and phosphatidylcholine (160 µg) contained therein and a methanol solution (10 µℓ)with a test sample dissolved therein were added, incubation was conducted for 12 hours. These procedures were carried out aseptically.
After completion of the incubation, cells attached to each bottom were washed 5 times with a serum-free RPMI 1640 medium by a graduated pipet, and isopropanol (1 mℓ) was added to extract intracellular cholesterol and formed cholesterol esters. The extract was coated in its entirety on a silica gel thin layer chromatography ("Art 5553", product of MERCK & Co., INC.) and subsequent to development with a 80:20:2 mixture of hexane, ethyl ether and formic acid, autoradiography was performed.
A section, which contained ^3H-labelled cholesterol esters and cholesterol, was cut off. Its radioactivity was measured by a liquid scintillation counter and compared with a control, whereby a cholesterol ester accumulation inhibition rate was determined.

[4] = tested on: ACAT; test: Screening toward substances having ACAT activity inhibitory effects; type: biochemical; details: screening finding, no value given

| Structure (SMILES) | IC50 [1] [nM] | Inhibitory rate (%) of plasma total cholesterol elevation in rat [2] [%] | other results |
| --- | --- | --- | --- |
| CCCCCCCCCCOc1c(OC)cc(/C=C/C(=O)NCCOc2ccccc2)cc1OC [Compound 52, N-(2-phenoxyethyl)-(2E)-3-(3,5-dimethoxy-4-decyloxyphenyl)-2-propenamide] |  | 23 |  |
| CCCCCCCCCCOc1c(OC)cc(/C=C/C(=O)Nc2ccc(Oc3ccccc3)cc2)cc1OC [Compound 55, N-(4-phenoxyphenyl)-(2E)-3-(3,5-dimethoxy-4-decyloxyphenyl)-2-propenamide] |  | 34 |  |
| COc1cc(/C=C/C(=O)N2CCN(c3ccc(C)cc3C)CC2)cc(OC)c1OCCOc1ccccc1 [Compound 24, N-[4-(2,4-dimethylphenyl)-1,4-diazacyclohexyl]-(2E)-3-[3,5-dimethoxy-4-(2-phenoxy)ethyloxy]-2-propenamide] |  | 20 | IC50 [3]: 720 nM |
| COc1cc(/C=C/C(=O)CCCCc2ccccc2)ccc1O [yakutinone B] |  |  | ACAT activity inhibitory effects [4]: exhibits ACAT activity inhibitory effects |

Now from value to compound, other results behind:

| IC50 [1] [nM] | Structure (SMILES) | Inhibitory rate (%) of plasma total cholesterol elevation in rat [2] [%] | other results |
| --- | --- | --- | --- |
| 45 | CCCCCCCCCCCOc1c(OC)cc(/C=C/C(=O)NN2CCN(c3ccc(C)c(C)c3)CC2)cc1OC [Compound 9, N-[4-(3,4-dimethylphenyl)-1,4-diazacyclohexyl]-(2E)-3-(3,5-dimethoxy-4-undecyloxyphenyl)-2-propenamide] | 28 |  |
| 71 | CCCCCCCCCCCCOc1c(OC)cc(/C=C/C(=O)NN2CCN(c3ccc(C)c(C)c3)CC2)cc1OC [Compound 10, N-[4-(3,4-dimethylphenyl)-1,4-diazacyclohexyl]-(2E)-3-(3,5-dimethoxy-4-dodecyloxyphenyl)-2-propenamide] | 33 |  |
| 42 | COc1cc(/C=C/C(=O)Nc2ccc(C(F)(F)F)cc2)cc(OC)c1OCc1ccccc1 [Compound 82, N-(4-trifluoromethylphenyl)-(2E)-3-(3,5-dimethoxy-4-benzyloxyphenyl)-2-propenamide] |  | IC50 ([3]; Mus musculus, J774.1, 12 h): 30 nM |
| 70 | CCCCCCCCCCCCOc1c(OC)cc(/C=C/C(=O)NN2CCN(c3ccc(C)cc3C)CC2)cc1OC [Compound 19, N-[4-(2,4-dimethylphenyl)-1,4-diazacyclohexyl]-(2E)-3-(3,5-dimethoxy-4-dodecyloxyphenyl) -2-propenamide] |  | IC50 ([3]; Mus musculus, J774.1, 12 h): 250 nM |
